Measured values from article PMC3576842 (Cancer discovery, 2012).
“Also recorded” adds a separate entry of the source. Each block holds one compound with its values, some of them ahead of it.

How the values were obtained:
[1] = molecular target: recombinant EGFR wild-type (Homo sapiens, UniProt P00533); assay: EGFR autophosphorylation assay; format: biochemical
recombinant EGFR T790M = recombinant EGFR T790M (Homo sapiens, UniProt P00533, T790M); assay: EGFR autophosphorylation assay; format: biochemical; details: for inhibition of EGFR T790M autophosphorylation: ATP, 15 min; for concentrations as low as which inhibit EGFR T790M autophosphorylation: EGFR T790M mutants
[2] = molecular target: recombinant EGFR L858R/T790M (Homo sapiens, UniProt P00533, L858R/T790M); assay: EGFR autophosphorylation assay; format: biochemical; details: ATP, 15 min
[3] = molecular target: EGFR L858R/T790M in NR6 cells (Homo sapiens, UniProt P00533, L858R/T790M); assay: Ligand-induced; format: cell-based; details: 16 hr, TGF-α 15 min
[4] = molecular target: EGFR del E746_A750/T790M in NR6 cells (Homo sapiens, UniProt P00533, DEL746-750/T790M); assay: Ligand-induced; format: cell-based; details: 16 hr, TGF-α 15 min
[5] = molecular target: wild-type EGFR in NR6 cells (Homo sapiens, UniProt P00533); assay: Ligand-induced; format: cell-based; details: for inhibition of ligand-induced EGFR phosphorylation: NR6 wild-type EGFR, TGF-α
[6] = test system: PC-9/ER xenografts (EGFR del E746_A750/T790M); assay: PC-9/ER xenograft study; details: for tumor growth: daily oral gavage for 21 days, PKC412 100 mg/kg, WZ4002 25 mg/kg
PC-9/ER cells = assay: Anti-proliferative response of erlotinib-resistant PC-9 clone; details: 10 μM erlotinib
[7] = human, in vivo; cited from earlier work
[8] = molecular target: EGFR del E746_A750/T790M in erlotinib-resistant PC-9 cells (Homo sapiens, UniProt P00533, DEL746-750/T790M); assay: Drug wash-out assay; format: cell-based
[9] = test system: NCI-H1975 tumor xenografts (EGFR L858R/T790M); assay: NCI-H1975 xenograft study; format: in vivo, Balb/c nude mice
[10] = test system: lung adenocarcinomas driven by EGFR L858R/T790M; assay: Genetically engineered NSCLC model; format: in vivo, mice
in vivo = details: athymic nude, mouse, plasma, oral, 100 mg/kg
[11] = PKC412 225 mg/d for 28 days, solid tumor tissues; cited from earlier work
PC-9 cells = assay: High-throughput tumor cell line screening / cell viability assay; format: cell-based, human; details: for effect on growth: even at high concentrations
HCC827 cells = assay: as above; format: cell-based, human
[12] = test system: EGFR delE746_A750 mutant lines (PC-9, HCC827, HCC4006); assay: Cell viability assay; format: cell-based, human; details: read-out: IC50 cell viability; 72 hr; 3 NSCLC lines with EGFR delE746_A750
[13] = test system: NCI-H1975 cells (EGFR L858R/T790M); assay: Cell viability assay; format: cell-based, human; details: read-out: IC50 cell viability; 72 hr; L858R/T790M mutant line
[14] = test system: PC-9 cells (EGFR del E746_A750); assay: EGFR signaling and apoptosis immunoblotting in PC-9 cells; format: cell-based, human
[15] = test system: HCC827 cells (EGFR del E746_A750); assay: EGFR signaling and apoptosis immunoblotting in HCC827 cells; format: cell-based, human
[16] = 1 μM, 72 hr, strong sensitivity defined as greater than 70% growth suppression

- inhibition of wild-type EGFR autophosphorylation ([1]; ATP, 15 min): ineffective
- concentrations with detectable inhibition of wild-type EGFR ([1]; autophosphorylation): above 1 micromolar
- inhibition of EGFR T790M autophosphorylation (recombinant EGFR T790M): potent suppression
- concentrations as low as which inhibit EGFR T790M autophosphorylation (recombinant EGFR T790M): 10 nM
- inhibition of EGFR L858R/T790M autophosphorylation [2]: potent suppression
- inhibition of ligand-induced EGFR phosphorylation [3]: similarly potent ability to inhibit
- inhibition of ligand-induced EGFR phosphorylation [4]: most potent inhibitor
- inhibition of ligand-induced EGFR phosphorylation [5]: modestly affected
SMILES: C=CC(=O)Nc1cccc(Oc2nc(Nc3ccc(N4CCN(C)CC4)cc3OC)ncc2Cl)c1 [WZ4002]
- tumor growth [6]: efficiently inhibited

SMILES: C#Cc1cccc(Nc2ncnc3cc(OCCOC)c(OCCOC)cc23)c1 [erlotinib]
- anti-proliferative response (PC-9/ER cells): no anti-proliferative response

SMILES: CO[C@@H]1[C@H](N(C)C(=O)c2ccccc2)C[C@H]2O[C@]1(C)n1c3ccccc3c3c4c(c5c6ccccc6n2c5c31)C(=O)N[C@H]4O [CGP52421]
- plasma concentration of metabolite [7]: 20000 to 25000 nM

- inhibition of EGFR T790M autophosphorylation (recombinant EGFR T790M): potently inhibit
- concentrations as low as which inhibit EGFR T790M autophosphorylation (recombinant EGFR T790M): 3 to 30 nM
- inhibition of EGFR L858R/T790M autophosphorylation [2]: potently inhibit
- inhibition of ligand-induced EGFR phosphorylation [3]: similarly potent ability to inhibit
- inhibition of ligand-induced EGFR phosphorylation [5]: not significantly inhibited
- less activity against wild-type EGFR in drug-treated cells than irreversible EGFR inhibitors ([5]; PKC412 versus irreversible EGFR inhibitors): 500 fold
- nature of inhibition (recovery of pEGFR after wash-out) [8]: reversible
- weight loss ([10]; 4 weeks of PKC412 treatment): No significant weight loss
- Cmax (in vivo): 2910 nM
- concentration at 24 h (in vivo): 659 nM
SMILES: CO[C@@H]1[C@H](N(C)C(=O)c2ccccc2)C[C@H]2O[C@]1(C)n1c3ccccc3c3c4c(c5c6ccccc6n2c5c31)C(=O)NC4 [PKC412]
- EGFR signaling in tumors after the last dosing ([9]; 4 hours after the last dosing): effective suppression of EGFR signaling
- suppression of phospho-EGFR and phospho-AKT in tumors ([9]; daily for 3 days, PKC412 100 or 200 mg/kg, gefitinib 100 mg/kg): Significant suppression
- body weight loss ([9]; daily oral 100 mg/kg): no significant body weight loss
- tumor growth suppression compared to control-treated animals ([9]; day 12, daily oral PKC412 100 mg/kg): 50%
- tumor growth ([10]; 4 weeks of treatment): growth inhibited for the first two weeks of treatment
- phosphorylation of EGFR L858R/T790M in tumors ([10]; treated for 5 days): significant decrease in phosphorylation
- tissue concentration (median) [11]: 593 nM
- EGFR signaling in tumors after the last dosing ([6]; Day 21, 4 hours after the last dosing): effective suppression of EGFR signaling
- body weight loss ([6]; daily oral 100 mg/kg, 21 days): no significant body weight loss
- tumor growth [6]: tumors began to regress; also recorded: significant tumor regression

SMILES: CN1CCN(c2nc(C3=C(c4c[nH]c5ccccc45)C(=O)NC3=O)c3ccccc3n2)CC1 [sotrastaurin]
- effect on growth (PC-9 cells): failed to detectably affect growth

SMILES: Cn1c2ccccc2c2c3c(c4c5ccccc5n(CCC#N)c4c21)CNC3=O [Gö6976]
- growth inhibition in cell line screen (PC-9 cells; [16]): strongly growth inhibited
- growth inhibition in cell line screen (HCC827 cells; [16]): strongly growth inhibited
- IC50 [12]: 100 to 200 nM
- IC50 [13]: ~800 nM
- apoptosis (PARP cleavage) ([14]; PC-9): promotes apoptosis
- suppression of EGFR signaling ([14]; PC-9, 1 μM): suppressed EGFR signaling as efficiently as erlotinib
- apoptosis (PARP cleavage) ([15]; HCC827): promotes apoptosis
- suppression of EGFR signaling ([15]; HCC827, 1 μM): suppressed EGFR signaling as efficiently as erlotinib

SMILES: CN(C)CCCn1cc(C2=C(c3c[nH]c4ccccc34)C(=O)NC2=O)c2ccccc21 [bis-indolylmaleimide I]
- effect on growth (PC-9 cells): failed to detectably affect growth
- effect on growth (HCC827 cells; even at high concentrations): failed to detectably affect growth
